Assays:
NIH3t3 cells = test: Fluorescence delivery assay with membrane depletion, GAG competition, Heparinase, serum or Sodium Chlorate; type: cell-based, mouse; conditions: for effect on cell-surface binding and transduction of HETD proteins: free GAG competition (FIG. 3b); for inhibition of PTD-only protein transduction: free GAG competition (FIG. 12)
Excerpt: For flow cytometry, cells were trypsinized (unless otherwise stated), fixed in 4% (w/v) PFA, resuspended in PBS (pH7.5) and analysed on a MoFlo™ DP (DAKO) Flow Cytometer using a 488 nm […] laser. (50,000 cells; gated on live cells by forward/side scatter). Median fluorescence was used for statistical analyses with background from unlabelled/transduced cells subtracted and values taken as ratios to the experimental control. Data shown are three experiments of triplicate samples. For microscopy, cultures were rinsed twice with PBS and imaged with inverted fluorescence microscope (Nikon Eclipse TS100).
For testing multiple cell lines we plated 2=10^5 cells/well (in 12-well plates) onto the surface relevant to the tested cell line, attached cells for 2 hours and transduced with recombinant proteins in cell-type specific growth media. After transduction cells were washed with PBS, trypsinized and fixed in 4% PFA for flow cytometry. For membrane localization, intracellular localisation or both we plated cells as above, but cultures pre-incubated in serum-free media for 1 hour before transduction. Membrane localization to assess cell interaction was achieved by a short transduction of 1 hour in serum-free media. Intracellular localization to assess transduction efficiency was achieved by a short transduction of 1 hour followed by 5 hour incubation in serum-free media only. Cell association (membrane and intracellular levels) were assessed by transducing cells for 6 hours in serum-free medium. For flow cytometry cells were trypsinized, washed and fixed in 4% PFA and for microscopy cells were imaged live after washing in PBS. For trypsin depletion of cell-surface proteins, cells were treated with trypsin/EDTA (Invitrogen) or EDTA-based cell dissociation solution (CDS) (Sigma) for 15 minutes at 37° C., followed by washes with PBS and 1× soybean trypsin inhibitor (10 mg/ml in PBS; Sigma). Cells were then treated with proteins for 1 hour at 37° C. in serum-free medium. For detergent depletion of cell membranes, cells were treated with PBS (pH7.5) containing 0.1% (v/v) Triton-X100 (Tx100) for 10 minutes at 37° C., followed by washes with PBS. Cells were then treated with proteins for 1 hour at 37° C. in serum-free medium. For GAG-treatment cells were pre-treated with GAGs in DMEM without serum before transduction and were included in the transduction media. This included heparin and chondroitin sulphate A, B and C (0-50 μg/ml).
For Heparin binding activity we incubated 1 ml of recombinant proteins (20 μg/ml) in DMEM with 50 μl of PBS-washed Heparin-sepharose beads (Sigma) for 1 hour at 37° C. shaking at 100 rpm. Media pre- and post-incubation was compared by fluorometry. For Heparinase treatment, we plated NIH3t3 cells at 2×10^5/well (in 12-well plates) and were pre-incubated in serum-free media for 1 hour with Heparinase III (0-1 U/ml) or Heparin (0-50 μg/ml). Cells were then washed and transduced with mR or P21-mR-8R (20 μg/ml in serum-free media or media with different FCS concentrations) containing Heparinase III or Heparin for 12 hours. FCS was depleted of P21-binding material by affinity chromatography. This was achieved by incubating 50 ml FCS with 2 ml Glutathione-Sepharose resin (GE Healthcare) pre-absorbed with GST-P21 protein expressed in Escherichia coli.

NIH3t3: LSL-eGFP cells = test: Cre recombination assay; type: cell-based, mouse; conditions: drug pre-treatment and co-treatment (FIG. 17a-d)
Experimental: To measure Cre Recombinase activity the NIH3t3: LSL-eGFP cell line was created using the pZ/EG plasmid transfection and G-418 selection {Novak, 2000 #6}. […] 2×10^5 cells/well were plated (in 12-well plates), pre-incubated them in DMEM without serum for 1 hour and treated with Cre proteins (0-500 μg/ml) in DMEM without serum. After the Cre incubation cells were trypsinized, replated into complete media and incubated for 2 days. Cells were pre-treated with drugs for the stated time-period in DMEM without serum, were included in Cre-transduction medium and were added after replating. […] After incubations cell were trypsinized, washed, fixed in 4% PFA and % recombined cells was determined by flow cytometry. For mR-Cre-8R and P21-mR-Cre-8R comparisons concentrations of 100 μg/ml and 10 μg/ml were used, respectively and data was expressed as % maximum recombination (i.e. the % relative to the maximum recombination achieved at the stared dose of Cre).

NIH 3t3 fibroblast cells = test: Iron oxide nanoparticle uptake (Prussian blue, iron assay); type: cell-based
Experimental: Confluent cells were split into 12 well plates at 200,000 cells/well and incubated for 24 hours at 37° C. After 24 hours 50 μg of Nanomag-D iron oxide nanoparticles (250 nm) and either 0, 0.01, 0.05, 0.1, 0.5, 2, 1, 5 and 10 μM of cell penetrating peptide were added to the cells with either 10% FCS DMEM or serum free DMEM media and left for 24 hours for iron nanoparticles to be internalised. After incubation cells were washed in PBS to remove excess nanoparticles then harvested for qualitative Prussian blue staining, quantitative colorimetric iron assay or fluorescence activated flow cytometry.
Cells were labelled then fixed in 4% (w/v) PFA for 15-20 minutes at 4° C. A staining solution of 2.5% potassium ferrocyanide in 2.5% HCL was added to cells and incubated for an hour at room temperature. If nanoparticles were present a blue stain appeared which is proportional to the concentration of iron.
Quantitative Colorimetric Iron Assay Cells were labelled, trypsinised and pelleted then all media removed. 40 μl of 37% HCL was added to the cells and heated at 70° C. until dissolved, then neutralised with 50 μl of NaOH. Those samples containing a high concentration of iron were diluted 1:10 then 40 μl of Quantichrom working reagent was added and the instructions in the Quantichrom iron assay followed.

Molecule: Chondroitin sulphate [CS-A]
- effect on cell-surface binding and transduction of HETD proteins (NIH3t3 cells): little effect

Molecule: Chondroitin sulphate [CS-B]
- effect on cell-surface binding and transduction of HETD proteins (NIH3t3 cells): little effect
- inhibition of PTD-only protein transduction (NIH3t3 cells): 2.4 fold

Molecule: Methyl-β-cyclodextrin [methyl-b-cyclodextrin]
- effect on functional delivery of HETD-tagged Cre (NIH3t3: LSL-eGFP cells): dose-dependent inhibition

Molecule: C=C1[C@@H](C)[C@H]2[C@H](Cc3ccccc3)NC(=O)[C@]23[C@H](OC(C)=O)/C=C/[C@@](C)(O)C(=O)[C@@H](C)C/C=C/[C@H]3[C@@H]1O [Cytochalasin D]
- effect on functional delivery of HETD-tagged Cre (NIH3t3: LSL-eGFP cells): dose-dependent reduction

Molecule: C[C@@H]1[C@H](O)[C@@H](C)/C=C/C=C/CC/C=C/C=C/C=C/C=C/C(O[C@H]2O[C@H](C)[C@@H](O)[C@H](N)[C@@H]2O)CC2O[C@](O)(CC(O)C(O)CCC(O)CC(O)CC(O)CC(=O)O[C@H]1C)CC(O)C2C(=O)O (stereo partly drawn) [nystatin]
- effect on functional delivery of HETD-tagged Cre (NIH3t3: LSL-eGFP cells): dose-dependent inhibition

Molecule: dextran
- decrease in nanoparticle uptake (NIH 3t3 fibroblast cells; increasing concentration added to media, 1 μM P218R): 18%

Molecule: N=C(N)NC(=O)c1nc(Cl)c(N)nc1N [Amiloride]
- effect on functional delivery of HETD-tagged Cre (NIH3t3: LSL-eGFP cells): dose-dependent reduction

Molecule: [Na+].[O-][Cl+2]([O-])[O-] [Sodium Chlorate]
- prevention of HETD-mediated protein delivery (NIH3t3 cells; inhibitor of HS synthesis (FIG. 14)): ~7.6 fold

Molecule: Chondroitin sulphate [CS-C]
- effect on cell-surface binding and transduction of HETD proteins (NIH3t3 cells): little effect
- inhibition of PTD-only protein transduction (NIH3t3 cells): 4.1 fold

Molecule: Heparin
- inhibition of PTD-only protein transduction (NIH3t3 cells): 8.1 fold
- inhibition of transduction of HETD proteins (NIH3t3 cells; free GAG in media, P21-mR-8R 20 μg/ml (FIG. 3)): 99.8±2.1%
- effect on P21 binding and nanoparticle uptake (NIH 3t3 fibroblast cells; added to media): inhibitor for the binding

B1: heparinase III: HS-lyase enzyme (protein, UniProt Q59289 25-659, looked up)
Heparin-sulfate lyase: QSSSITRKDFDHINLEYSGLEKVNKAVAAGNYDDAAKALLAYYREKSKAREPDFSNAEKPADIRQPIDKVTREMADKALVHQFQPHKGYGYFDYGKDINWQMWPVKDNEVRWQLHRVKWWQAMALVYHATGDEKYAREWVYQYSDWARKNPLGLSQDNDKFVWRPLEVSDRVQSLPPTFSLFVNSPAFTPAFLMEFLNSYHQQADYLSTHYAEQGNHRLFEAQRNLFAGVSFPEFKDSPRWRQTGISVLNTEIKKQVYADGMQFELSPIYHVAAIDIFLKAYGSAKRVNLEKEFPQSYVQTVENMIMALISISLPDYNTPMFGDSWITDKNFRMAQFASWARVFPANQAIKYFATDGKQGKAPNFLSKALSNAGFYTFRSGWDKNATVMVLKASPPGEFHAQPDNGTFELFIKGRNFTPDAGVFVYSGDEAIMKLRNWYRQTRIHSTLTLDNQNMVITKARQNKWETGNNLDVLTYTNPSYPNLDHQRSVLFINKKYFLVIDRAIGEATGNLGVHWQLKEDSNPVFDKTKNRVYTTYRDGNNLMIQSLNADRTSLNEEEGKVSYVYNKELKRPAFVFEKPKKNAGTQNFVSIVYPYDGQKAPEISIRENKGNDFEKGKLNLTLTINGKQQLVLVP
- inhibition of GET/HETD-mediated transduction (NIH3t3 cells; at 1 U/ml, 6 h protocol): 97.2±3.4%

Source: patent publication US11672870B2, “Transduction” (The University of Nottingham, priority 2013, dated 2023)
